Test results published in US20130096104A1, “IMIDAZOPYRIDINE COMPOUNDS, COMPOSITIONS AND METHODS OF USE” (GENENTECH, INC., priority 2010, published 2013).

The molecules below were run against T1, TYK2 kinase domain (Homo sapiens, UniProt P29597) (assay: TYK2 inhibition assay (Example A, Caliper LabChip peptide phosphorylation)). Conditions: isolated kinase domain, 1 nM TYK2, 25 uM ATP, Morrison tight binding model.
T1 construct: The activity of the isolated JAK1, JAK2 or TYK2 kinase domain was measured
T1 sequence (P29597 897-1176 limits assumed): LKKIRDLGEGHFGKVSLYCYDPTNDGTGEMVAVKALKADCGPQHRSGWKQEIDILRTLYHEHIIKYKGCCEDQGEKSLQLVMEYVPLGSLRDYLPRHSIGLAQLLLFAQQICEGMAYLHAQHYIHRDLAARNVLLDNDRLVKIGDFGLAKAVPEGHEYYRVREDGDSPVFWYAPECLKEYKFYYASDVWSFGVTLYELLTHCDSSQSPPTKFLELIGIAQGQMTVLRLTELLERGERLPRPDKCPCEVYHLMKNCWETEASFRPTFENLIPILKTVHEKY
Assay type: biochemical
Experimental: The activity of the isolated JAK1, JAK2 or TYK2 kinase domain was measured by monitoring phosphorylation of a peptide derived from JAK3 ([…] fluorescently labeled on the N-terminus with 5-carboxyfluorescein using the Caliper LabChip technology (Caliper Life Sciences, Hopkinton, Mass.). […] Reactions were incubated at 22° C. in 384-well polypropylene microtiter plates for 30 minutes and then stopped by addition of 25 uL of an EDTA containing solution (100 mM Hepes pH 7.2, 0.015% Brij-35, 150 mM EDTA), resulting in a final EDTA concentration of 50 mM. After termination of the kinase reaction, the proportion of phosphorylated product was determined as a fraction of total peptide substrate using the Caliper LabChip 3000 according to the manufacturer's specifications. Ki values were then determined using the Morrison tight binding model. Morrison, J. F., Biochim. Biophys. Acta. 185:269-296 (1969); William, J. W. and Morrison, J. F., Meth. Enzymol., 63:437-467 (1979).
For `Clc1cccc(Cl)c1-c1nc2c(Nc3ccccn3)nccc2[nH]1` [Example 1, 2-(2,6-dichlorophenyl)-N-(pyridin-2-yl)-1H-imidazo[4,5-e]pyridin-4-amine], the Ki was 1.7 nM.
`Clc1cccc(Cl)c1-c1nc2ccnc(Nc3cn[nH]c3)c2[nH]1` [Example 3, 2-(2,6-dichlorophenyl)-N-(1H-pyrazol-4-yl)-3H-imidazo[4,5-e]-pyridin-4-amine] gave a Ki of 14.5 nM.
Molecule `Clc1cccc(Cl)c1-c1nc2ccnc(Nc3cc(N4CCOCC4)ncn3)c2[nH]1` [Example 5, 2-(2,6-dichlorophenyl)-N-(6-morpholinopyrimidin-4-yl)-3H-imidazo[4,5-e]pyridin-4-amine] has a Ki of 0.6 nM.
With `Fc1cccc(Cl)c1-c1nc2ccnc(Nc3cnccn3)c2[nH]1` [Example 6, 2-(2-chloro-6-fluorophenyl)-N-(pyrazin-2-yl)-3H-imidazo[4,5-e]-pyridin-4-amine] the Ki was 3.1 nM.
With `O=C(Nc1nccc2nc(-c3c(Cl)cccc3Cl)[nH]c12)c1cncs1` [Example 7, N-(2-(2,6-dichlorophenyl)-3H-imidazo[4,5-c]pyridin-4-yl) thiazole-5-carboxamide] the Ki was 7.8 nM.
`N#Cc1cc(Cl)c(-c2nc3ccnc(NC(=O)C4CC4)c3[nH]2)c(Cl)c1` [Example 10, N-(2-(2,6-dichloro-4-cyanophenyl)-3H-imidazo[4,5-c]pyridin-4-yl)cyclopropanecarboxamide] showed a Ki of 2.5 nM.
`CNC(=O)Nc1nccc2nc(-c3c(Cl)cccc3Cl)[nH]c12` [Example 11, 1-(2-(2,6-dichlorophenyl)-3H-imidazo[4,5-e]pyridin-4-yl)-3-methylurea] showed a Ki of 4.9 nM.
Molecule `Cn1c(-c2c(Cl)cccc2Cl)nc2c(NC(=O)C3CC3)nccc21` [Example 12, N-(2-(2,6-dichlorophenyl)-1-methyl-1H-imidazo[4,5-c]pyridine-4-yl)cyclopropanecarboxamide] has a Ki of 13.3 nM.
In the case of `Cn1c(-c2c(Cl)cccc2Cl)nc2ccnc(NC(=O)C3CC3)c21` [Example 13, N-(2-(2,6-dichlorophenyl)-3-methyl-3H-imidazo[4,5-c]pyridine-4-yl)cyclopropanecarboxamide], the Ki is reported as 19.5 nM.
Work on `Clc1cccc(Cl)c1-c1nc2c(Nc3ccncn3)ncnc2[nH]1` [Example 14, 8-(2,6-dichlorophenyl)-N-(pyrimidin-4-yl)-9H-purin-6-amine] yielded a Ki of 2.8 nM.
Molecule `O=C(Nc1ncnc2nc(-c3c(Cl)cccc3Cl)[nH]c12)C1CC1` [Example 15, N-(8-(2,6-dichlorophenyl)-7H-purin-6-yl)cyclopropanecarboxamide] has a Ki of 8.1 nM.
In the case of `Cc1cc(Nc2ncc(F)c3[nH]c(-c4c(Cl)cccc4Cl)nc23)nc(C)n1` [Example 16, 2-(2,6-dichlorophenyl)-N-(2,6-dimethylpyrimidin-4-yl)-7-fluoro-1H-imidazo[4,5-c]pyridin-4-amine], the Ki is reported as 2.3 nM.
In the case of `Cc1nc(Nc2ncnc3nc(-c4c(Cl)cccc4Cl)[nH]c23)cc(N2CCN(CCO)CC2)n1` [Example 167, 2-(4-{6-[8-(2,6-Dichloro-phenyl)-7H-purin-6-ylamino]-2-methyl-pyrimidin-4-yl}-piperazin-1-yl)-ethanol], the Ki is reported as 7.2 nM.
With `CNC(=O)Nc1ncnc2nc(-c3c(Cl)cccc3Cl)[nH]c12` [Example 171, 1-(8-(2,6-dichlorophenyl)-7H-purin-6-yl)-3-methylurea] the Ki was 27.2 nM.
For `Cc1ccc(Nc2ncnc3nc(-c4c(Cl)cccc4Cl)[nH]c23)nc1` [Example 179, 8-(2,6-dichlorophenyl)-N-(5-methylpyridin-2-yl)-7H-purin-6-amine], the Ki was 1.5 nM.
`N#Cc1cc(Cl)c(-c2nc3ncnc(Nc4ccc(N5CCOCC5)cn4)c3[nH]2)c(Cl)c1` [Example 197, 3,5-dichloro-4-(6-(5-morpholinopyridin-2-ylamino)-7H-purin-8-yl)benzonitrile] gave a Ki of 1.4 nM.
`COC(=O)Nc1ncnc2nc(-c3c(F)cccc3Cl)[nH]c12` [Example 208, methyl 8-(2-chloro-6-fluorophenyl)-7H-purin-6-ylcarbamate] gave a Ki of 56 nM.
`O=C(Nc1ncnc2nc(-c3c(F)cccc3Cl)[nH]c12)C1CC1` [Example 210, N-(8-(2-chloro-6-fluorophenyl)-7H-purin-6-yl)cyclopropanecarboxamide] gave a Ki of 27.8 nM.
In the case of `Cn1c(-c2c(Cl)cccc2Cl)nc2c(Nc3ccncc3)ncnc21` [Example 215, 8-(2,6-dichlorophenyl)-9-methyl-N-(pyridin-4-yl)-9H-purin-6-amine], the Ki is reported as 56.5 nM.
`O=C(Nc1ncnc2c1nc(-c1c(Cl)cccc1Cl)n2CCO)C1CC1` [Example 439, Cyclopropanecarboxylic acid [8-(2,6-dichloro-phenyl)-9-(2-hydroxy-ethyl)-9H-purin-6-yl]-amide] was tested, and the Ki was 835 nM.
`O=C(Nc1ncc(Cl)c2[nH]c(-c3c(Cl)cccc3Cl)nc12)C1CC1` [Example 447, Cyclopropanecarboxylic acid [7-chloro-2-(2,6-dichloro-phenyl)-1H-imidazo[4,5-c]pyridin-4-yl]-amide] was tested, and the Ki was 0.8 nM.
